Broadly, the Ki is the equilibrium dissociation constant of an inhibitor or competing ligand from its target.

This passage reports Ki results from US6504052B1, “Excitatory amino acid receptor modulators” (Eli Lilly and Company, priority 1999, dated 2003).

Structures are written as SMILES.

This experiment deals with T1, mGluR2 (Homo sapiens, UniProt Q14416).
T1 construct: expressed in transfected cells
The experiment is described as follows: [3H]LY341495 binding displacement at mGluR2. The note with it: radioligand [3H]LY341495, cells expressing human mGluR subtypes, read-out: Ki for reversal of [3 H] LY341495 binding. From the text:
(D. D. Schoepp, et al., Neuropharmacol., 1996, 35, 1661-1672 and 1997, 36, 111).
(LY341495 is described in Ornstein et al., J. Med. Chem., 1998, 41, 346-357 and J. Med. Chem., 1998, 41, 358 to 378).

T1 sequence (Q14416 19-872): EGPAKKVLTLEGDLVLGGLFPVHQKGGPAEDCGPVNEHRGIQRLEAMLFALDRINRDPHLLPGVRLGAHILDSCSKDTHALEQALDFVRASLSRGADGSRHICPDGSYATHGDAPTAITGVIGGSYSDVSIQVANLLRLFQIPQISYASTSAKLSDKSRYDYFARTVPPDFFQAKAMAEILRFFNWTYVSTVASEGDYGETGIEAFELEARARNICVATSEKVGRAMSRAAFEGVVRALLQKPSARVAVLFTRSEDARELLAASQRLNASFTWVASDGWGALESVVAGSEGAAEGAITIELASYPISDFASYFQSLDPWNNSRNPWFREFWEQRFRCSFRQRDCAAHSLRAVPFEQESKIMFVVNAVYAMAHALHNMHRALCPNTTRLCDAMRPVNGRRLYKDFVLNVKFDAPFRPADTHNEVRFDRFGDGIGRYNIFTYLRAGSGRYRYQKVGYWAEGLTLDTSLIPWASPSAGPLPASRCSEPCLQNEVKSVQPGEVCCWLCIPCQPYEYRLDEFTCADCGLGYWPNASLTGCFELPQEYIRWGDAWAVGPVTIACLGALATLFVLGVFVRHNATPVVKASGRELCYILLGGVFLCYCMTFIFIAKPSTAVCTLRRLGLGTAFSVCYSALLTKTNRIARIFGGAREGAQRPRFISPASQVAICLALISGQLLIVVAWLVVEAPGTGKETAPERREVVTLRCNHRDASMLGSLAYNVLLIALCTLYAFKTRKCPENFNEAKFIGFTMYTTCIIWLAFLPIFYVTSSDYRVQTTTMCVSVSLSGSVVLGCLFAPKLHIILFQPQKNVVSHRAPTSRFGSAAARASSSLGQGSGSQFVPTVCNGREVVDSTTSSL

With `C[C@@H]1[C@H](C(=O)O)[C@H]1[C@H](N)C(=O)O` [(2S,1′S,2′S,3′S)-2′-carboxy-3′methylcyclopropylglycine], the Ki came out at 2640 nM.
As for `C[C@H]1[C@H](C(=O)O)[C@H]1[C@H](N)C(=O)O` [Example 1, (2S,1′S,2′S,3′R)-2-(3′-Methyl-2′-carboxycyclopropyl)glycine], the figure is 100 nM.
